# Source: patent US4435569A, “5-[Substituted amino methyl]pyrrolo[2,3-d]pyrimidine-4-one” (Takeda Chemical Industries, Ltd., priority 1981, dated 1984)
# Counter-ions that a name gives are not always drawn.
# Key:
# L5178Y cells = assay: Inhibitory effect upon the multiplication of tumor cells (L5178Y); type: cell-based; details: Mus musculus, RPMI1640 + 10% fetal calf serum, 48 hours, 37° C., concentration giving cell count of 50% of control, read-out: ED50 (the source's name)
# Protocol: Inhibitory effect upon the multiplication of tumor cells
# The inhibitory effects of compound (I) upon the multiplication of cells were detected using L5178Y cells (tumor cell) in RPMI1640 medium+10% fetal calf serum for 48 hours at 37° C.
# The result was expressed in the concentration of the drug giving a cell count of 50% (ED50) with the average number of cells for the control (not medicated) group on the 2nd day being taken as 100%.
# Sarcoma 180 = assay: Growth inhibition of subcutaneously transplanted Sarcoma 180 in ICR mouse (tumor weight); type: in vivo; details: 1×10^6 cells s.c., 0.5 mg/kg i.p. once daily for 20 consecutive days from 24 h, day 35
# Protocol: (§1) One×10^6 Sarcoma 180 cells were subcutaneously transplanted into the right groin of an ICR mouse weighing about 20 grams and starting 24 hours after transplantation, 0.5 mg/kg of the compound of Example 1 in distilled water for injection was intraperitoneally administered once daily for 20 consecutive days. On day 35 after transplantation, the tumorous node was incised, weighed and compared with the specimen of the control (without medication) group. The percent inhibition was 58% relative to the control.
# Ehlrich carcinoma cells = assay: Growth inhibition of transplanted Ehrlich carcinoma in mice (Experimental Example 1 repeated); type: in vivo, mouse; details: mice with Ehrlich carcinoma; as Experimental Example 1: 0.5 mg/kg i.p. once daily for 20 days; day 35
# Protocol: as §1
# The experiment described in Experimental Example 1 was repeated except that mice transplanted with Ehlrich carcinoma cells were employed.
Structure (SMILES),IC50 (L5178Y cells),percent inhibition (tumor weight relative to control) (Sarcoma 180),percent inhibition rate (tumor weight relative to control) (Ehlrich carcinoma cells)
"Nc1nc2[nH]cc(CN[C@H]3C=C[C@H](O)[C@@H]3O)c2c(=O)[nH]1 [Q base, reference compound]",> 200 mg/L,,
"Nc1nc2[nH]cc(CNCc3ccccc3)c2c(=O)[nH]1 [Example 4, 2-amino-5-benzylaminomethylpyrrolo[2,3-d]pyrimidin-4-one]",30 mg/L,,
"CCCNCc1c[nH]c2nc(N)[nH]c(=O)c12 [Example 1, 2-amino-5-propylaminomethylpyrrolo[2,3-d]pyrimidin-4-one (dihydrochloride)]",,58%,75%
"Nc1nc2[nH]cc(CNC3CCCC3)c2c(=O)[nH]1 [Example 2, 2-amino-5-cyclopentylaminomethylpyrrolo[2,3-d]pyrimidin-4-one(dihydrochloride)]",40 mg/L,,
"Nc1nc2[nH]cc(CN3CCCCC3)c2c(=O)[nH]1 [Example 3, 2-amino-5-piperidinomethylpyrrolo[2,3-d]pyrimidin-4-one (dihydrochloride)]",120 mg/L,,
